# Patent publication US20250230193A1, “CYCLIC COMPOUND HAVING SELECTIVE KRAS INHIBITORY EFFECT ON HRAS AND NRAS” (CHUGAI SEIYAKU KABUSHIKI KAISHA, priority 2022, published 2025)
# Where a SMILES comes first, the peptide text is derived from it. Bridges are numbered along the chain shown (N, C = ends). [ ]: non-standard residue; d: D form. The star is where a group is joined. hPhe(3-Cl-4-CF3) = N[C@@H](CCc1ccc(C(F)(F)F)c(Cl)c1)C(=O)O; NPrPhe(4-CF3) = CCCN[C@@H](Cc1ccc(C(F)(F)F)cc1)C(=O)O; NMePhe(4-Me) = CN[C@@H](Cc1ccc(C)cc1)C(=O)O; NMeGly(cPent) = CN[C@H](C(=O)O)C1CCCC1; Hyp = O=C(O)[C@@H]1C[C@@H](O)CN1; NMeD = CN[C@@H](CC(=O)O)C(=O)O; NMeL = CN[C@@H](CC(C)C)C(=O)O; Morpholide = C1CN(*)CCO1; NMeA = CN[C@@H](C)C(=O)O; Ac5c = NC1(C(=O)O)CCCC1; Aze = O=C(O)[C@@H]1CCN1; NEtG = CCNCC(=O)O; Sar = CNCC(=O)O
# Key:
# [1] = biological target: GDP-bound NRAS wild-type protein (Homo sapiens, UniProt P01111); experiment: Binding to NRAS by surface plasmon resonance (SPR), Single Cycle Kinetics; settings: for NRAS/KRAS (ratio of KD value with respect to NRAS to KD value with respect to KRAS): GDP-bound NRAS wild-type vs GDP-bound KRAS wild-type
# [2] = biological target: GDP-bound HRAS wild-type protein (Homo sapiens, UniProt P01112); experiment: Binding to HRAS by surface plasmon resonance (SPR), Single Cycle Kinetics; settings: for HRAS/KRAS (ratio of KD value with respect to HRAS to KD value with respect to KRAS): GDP-bound HRAS wild-type vs GDP-bound KRAS wild-type
# GDP-bound HRAS wild-type protein, sequence (P01112 whole entry): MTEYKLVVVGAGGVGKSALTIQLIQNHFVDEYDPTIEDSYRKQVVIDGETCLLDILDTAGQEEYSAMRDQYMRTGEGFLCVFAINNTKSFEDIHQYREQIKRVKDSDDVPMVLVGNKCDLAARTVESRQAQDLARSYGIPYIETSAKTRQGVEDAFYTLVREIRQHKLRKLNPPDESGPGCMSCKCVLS
# GDP-bound NRAS wild-type protein, sequence (P01111 whole entry): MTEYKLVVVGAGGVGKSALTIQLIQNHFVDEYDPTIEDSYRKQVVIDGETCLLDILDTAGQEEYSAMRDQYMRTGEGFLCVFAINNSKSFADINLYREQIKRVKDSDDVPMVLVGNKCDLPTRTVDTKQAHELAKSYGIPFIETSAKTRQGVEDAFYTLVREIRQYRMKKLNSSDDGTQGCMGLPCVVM
smiles,measurement,setting,value
CCC[C@H]1C(=O)N[C@@H](C2CCCC2)C(=O)N(C)CC(=O)N(C)[C@H]2C/C=C\CCN(C2=O)[C@@H](Cc2ccc(C)cc2)C(=O)N(C)CC(=O)N[C@@H](CCc2ccc(C(F)(F)F)c(Cl)c2)C(=O)N2C[C@H](OCC)C[C@H]2C(=O)NC2(CC(C)(C)C2)C(=O)N(C)[C@@H](CC(F)(F)F)C(=O)N(C)[C@H](C(=O)N(C)C)CC(=O)N1C [PP2192],NRAS/KRAS (ratio of KD value with respect to NRAS to KD value with respect to KRAS),[1]; SPR,A (a compound having 10 or more and less than 20 is denoted as A)
same,HRAS/KRAS (ratio of KD value with respect to HRAS to KD value with respect to KRAS),[2]; SPR,A (a compound having 10 or more and less than 20 is denoted as A)
CC[C@H](C)[C@@H]1NC(=O)[C@H](CC(C)C)N(C)C(=O)C[C@@H](C(=O)N2CCOCC2)N(C)C(=O)[C@H](C2CCCC2)N(C)C(=O)C2(CCCC2)NC(=O)[C@@H]2CCCN2C(=O)[C@H](CCc2ccc(C(F)(F)F)c(Cl)c2)NC(=O)CN(CC)C(=O)[C@H](Cc2ccc(C)cc2)N(C)C(=O)CN(CC)C(=O)CN(C)C1=O [PP0029] ([NMeL]I[Sar][NEtG][NMePhe(4-Me)][NEtG][hPhe(3-Cl-4-CF3)]P[Ac5c][NMeGly(cPent)][NMeD]-Morpholide; lactam N-11),NRAS/KRAS (ratio of KD for GDP-bound NRAS wild-type to KD for KRAS),"[1]; KD ratio NRAS/KRAS, SPR",C (A compound having a KD ratio of 0.1 or more and less than 3 is denoted as C)
same,HRAS/KRAS (ratio of KD for GDP-bound HRAS wild-type to KD for KRAS),"[2]; KD ratio HRAS/KRAS, SPR",C (A compound having a KD ratio of 0.1 or more and less than 3 is denoted as C)
CCOC[C@H]1C(=O)N[C@@H]([C@@H](C)CC)C(=O)N(C)CC(=O)N(C)[C@H]2C/C=C\CCN(C2=O)[C@@H](Cc2ccc(C(F)(F)F)cc2)C(=O)N(C)CC(=O)N[C@@H](CCc2ccc(C(F)(F)F)c(OC)c2)C(=O)N2C[C@@H](C)C[C@H]2C(=O)N(C)C2(CCC2)C(=O)N(C)[C@@H](C2CCCC2)C(=O)N(C)[C@H](C(=O)N(C)C)CC(=O)N1C [PP2359],NRAS/KRAS (ratio of KD value with respect to NRAS to KD value with respect to KRAS),[1]; SPR,A (a compound having 10 or more and less than 20 is denoted as A)
same,HRAS/KRAS (ratio of KD value with respect to HRAS to KD value with respect to KRAS),[2]; SPR,B (a compound having 3 or more and less than 10 is denoted as B)
CCCOC[C@H]1C(=O)N[C@@H]([C@@H](C)OCC)C(=O)N(C)CC(=O)N(C)[C@H]2C/C=C\CCN(C2=O)[C@@H](Cc2ccc(C)cc2)C(=O)N(C)CC(=O)N[C@@H](CCc2ccc(C(F)(F)F)c(OC)c2)C(=O)N2C[C@@H](C)C[C@H]2C(=O)NC2(CC(C)(C)C2)C(=O)N(C)[C@@H](C2CCCC2)C(=O)N(C)[C@H](C(=O)N(C)CC)CC(=O)N1C [PP2423],NRAS/KRAS (ratio of KD value with respect to NRAS to KD value with respect to KRAS),[1]; SPR,A (a compound having 10 or more and less than 20 is denoted as A)
same,HRAS/KRAS (ratio of KD value with respect to HRAS to KD value with respect to KRAS),[2]; SPR,A (a compound having 10 or more and less than 20 is denoted as A)
CC[C@H](C)[C@@H]1NC(=O)[C@H](CC(C)C)N(C)C(=O)C[C@@H](C(=O)N2CCOCC2)N(C)C(=O)[C@H](C2CCCC2)N(C)C(=O)C2(CCCC2)NC(=O)[C@@H]2[C@@H](O)CCN2C(=O)[C@H](CCc2cc(F)c(C(F)(F)F)c(F)c2)NC(=O)CN(C)C(=O)[C@H](Cc2ccc(C(F)(F)F)cc2)N2CCCCC[C@@H](C2=O)N(C)C(=O)CN(C)C1=O [PP0662],NRAS/KRAS (ratio of KD value with respect to GDP-bound NRAS wild-type protein to KD value with respect to KRAS),"[1]; KD ratio NRAS/KRAS, SPR",B (a compound having 3 or more and less than 10 is denoted as B)
same,HRAS/KRAS (ratio of KD value with respect to GDP-bound HRAS wild-type protein to KD value with respect to KRAS),"[2]; KD ratio HRAS/KRAS, SPR",B (a compound having 3 or more and less than 10 is denoted as B)
CCO[C@@H]1C[C@H]2C(=O)NC3(CC(C)(C)C3)C(=O)N(C)[C@@H](CC3CCC3)C(=O)N(C)[C@H](C(=O)N(C)C)CC(=O)N(C)[C@@H](COC)C(=O)N[C@@H]([C@@H](C)CC)C(=O)N(C3CC3)CC(=O)N(C)[C@H]3C/C=C\CCN(C3=O)[C@@H](Cc3ccc(C(F)(F)F)cc3)C(=O)N(C)CC(=O)N[C@@H](CCc3ccc(Cl)c(Cl)c3)C(=O)N2C1 [PP2821],NRAS/KRAS (ratio of KD value with respect to GDP-bound NRAS wild-type protein to KD value with respect to KRAS),"[1]; KD ratio NRAS/KRAS, class symbols",A (a compound having 10 or more and less than 20 is denoted as A)
same,HRAS/KRAS (ratio of KD value with respect to GDP-bound HRAS wild-type protein to KD value with respect to KRAS),"[2]; KD ratio HRAS/KRAS, class symbols",A (a compound having 10 or more and less than 20 is denoted as A)
CCCN1C(=O)[C@@H]2CCN2C(=O)[C@H](C)N(C)C(=O)[C@H]([C@@H](C)CC)NC(=O)[C@H](CC(C)C)N(C)C(=O)C[C@@H](C(=O)N(C)C)N(C)C(=O)[C@H](C2CCCC2)N(C)C(=O)C2(CCCC2)NC(=O)[C@@H]2C[C@@H](OCC)CN2C(=O)[C@H](CCc2ccc(C(F)(F)F)c(Cl)c2)NC(=O)CN(C)C(=O)[C@@H]1Cc1ccc(C(F)(F)F)cc1 [PP0438] ([NMeL]I[NMeA][Aze][NPrPhe(4-CF3)][Sar][hPhe(3-Cl-4-CF3)][Hyp](Et)[Ac5c][NMeGly(cPent)][NMeD]-NMe2; lactam N-11),NRAS/KRAS (ratio of KD value with respect to GDP-bound NRAS wild-type protein to KD value with respect to KRAS),"[1]; KD ratio NRAS/KRAS, SPR",C (A compound having a KD ratio of 0.1 or more and less than 3 is denoted as C)
same,HRAS/KRAS (ratio of KD value with respect to GDP-bound HRAS wild-type protein to KD value with respect to KRAS),"[2]; KD ratio HRAS/KRAS, SPR",C (A compound having a KD ratio of 0.1 or more and less than 3 is denoted as C)
